Measurements taken from patent US20060069132A1, “Azolecarboxamide herbicides” (priority 2004, published 2006).

Key:
velvetleaf [1] = assay: Test A pre-/postemergence herbicide test; type: in vivo, Abutilon theophrasti
Method in brief: (§1)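 Visual injury rating on a 0–100 scale (0 no effect, 100 complete control) versus untreated controls, about ten days after treatment in greenhouse. Pre: directed soil spray onto seeded sandy loam. Post: spray to runoff on plants 2–10 cm tall at one- to two-leaf stage.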

rice [2] = assay: Test B flooded paddy test; type: in vivo, Oryza sativa; conditions: 1000 g ai/ha, visual rating, scale 0 to 100 (0 no effect, 100 complete control), 13 to 15 days
Method in brief: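 Read-out: visual comparison with controls, scored 0 to 100, where 100 means complete control and 0 no effect. Formulated chemicals were applied postemergence to plants 2–18 cm tall (1- to 4-leaf), or to flooded-paddy plants at the 2-leaf stage, then held 13 to 15 days under glass.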

ducksalad = assay: Test B flooded paddy test; type: in vivo, Heteranthera limosa; conditions: 1000 g ai/ha, visual rating, scale 0 to 100 (0 no effect, 100 complete control), 13 to 15 days
Method in brief: (§2)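 Visual ratings, 0 (no effect) to 100 (complete control), made versus controls after 13–15 d greenhouse. Paddy plants treated at 2-leaf stage; postemergence plants at 1- to 4-leaf stage, 2–18 cm tall.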

morningglory [3] = assay: Test A pre-/postemergence herbicide test; type: in vivo, Ipomoea spp.
Method in brief: as §1

barnyardgrass [4] = assay: Test B pre-/postemergence herbicide test; type: in vivo, Echinochloa crus-galli
Method in brief: (§3)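 Visual rating, 0 (no effect) to 100 (complete control), versus untreated controls after 13–15 d in greenhouse. Pre- and postemergence applications (postemergence plants 2–18 cm, 1–4 leaves); flooded paddy arm at 2-leaf stage. Compounds in non-phytotoxic solvent plus surfactant.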

large crabgrass [5] = assay: Test A pre-/postemergence herbicide test; type: in vivo, Digitaria sanguinalis
Method in brief: as §1

barnyardgrass [6] = assay: Test B flooded paddy test; type: in vivo, Echinochloa crus-galli; conditions: 1000 g ai/ha, visual rating, scale 0 to 100 (0 no effect, 100 complete control), 13 to 15 days
Method in brief: as §2

large crabgrass [7] = assay: Test B pre-/postemergence herbicide test; type: in vivo, Digitaria sanguinalis
Method in brief: as §3

giant foxtail [8] = assay: Test B pre-/postemergence herbicide test; type: in vivo, Setaria faberi
Method in brief: as §3

rice [9] = assay: Test B pre-/postemergence herbicide test; type: in vivo, Oryza sativa; conditions: preemergence, 125 g ai/ha; 0 to 100 scale, 0 is no effect, 100 is complete control
Method in brief: as §3

wheat = assay: Test B postemergence herbicide test; type: in vivo, Triticum aestivum; parameters: key to Wheat plant response rating: 0 = no effect, 100 = complete control; conditions: scale 0 (no effect) to 100 (complete control)
Method in brief: (§4)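 Treated at 2-leaf (paddy) or 1–4-leaf, 2–18 cm (postemergence); greenhouse 13–15 d; visual score vs control, 0 none to 100 complete control; dash = not tested.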

morningglory [10] = assay: Test B pre-/postemergence herbicide test; type: in vivo, Ipomoea coccinea
Method in brief: as §3

pigweed = assay: Test B pre-/postemergence herbicide test; type: in vivo, Amaranthus retroflexus
Method in brief: as §3

cocklebur = assay: Test B pre-/postemergence herbicide test; type: in vivo, Xanthium strumarium
Method in brief: as §3

[11] = test system: small flower umbrella sedge; assay: Test B flooded paddy test; type: in vivo, Cyperus difformis; conditions: 1000 g ai/ha, visual rating, scale 0 to 100 (0 no effect, 100 complete control), 13 to 15 days
Method in brief: as §2

Surinam grass = assay: Test B pre-/postemergence herbicide test; type: in vivo, Urochloa decumbens
Method in brief: as §3

giant foxtail [12] = assay: Test A pre-/postemergence herbicide test; type: in vivo, Setaria faberi
Method in brief: as §1

lambsquarters = assay: Test B pre-/postemergence herbicide test; type: in vivo, Chenopodium album
Method in brief: as §3

wild oat = assay: Test B postemergence herbicide test; type: in vivo, Avena fatua; conditions: scale 0 (no effect) to 100 (complete control)
Method in brief: as §4

blackgrass = assay: Test B postemergence herbicide test; type: in vivo, Alopecurus myosuroides; conditions: scale 0 (no effect) to 100 (complete control)
Method in brief: as §2

barnyardgrass [13] = assay: Test A pre-/postemergence herbicide test; type: in vivo, Echinochloa crus-galli
Method in brief: as §1

corn = assay: Test B pre-/postemergence herbicide test; type: in vivo, Zea mays
Method in brief: as §3

redroot pigweed = assay: Test A pre-/postemergence herbicide test; type: in vivo, Amaranthus retroflexus
Method in brief: as §1

velvetleaf [14] = assay: Test B pre-/postemergence herbicide test; type: in vivo, Abutilon theophrasti
Method in brief: as §3

[15] = Postemergence, 500 g ai/ha, 0 to 100 scale, 0 no effect, 100 complete control
[16] = Postemergence, 2000 g ai/ha, 0 to 100 scale, 0 no effect, 100 complete control
[17] = Preemergence, 500 g ai/ha, visual rating, 0 to 100 scale (0 no effect, 100 complete control)
[18] = Preemergence, 2000 g ai/ha, 0 to 100 scale, 0 no effect, 100 complete control
[19] = Postemergence, 500 g ai/ha, visual rating after 13 to 15 days, scale 0 (no effect) to 100 (complete control)
[20] = Preemergence, 500 g ai/ha, scale 0 to 100
[21] = postemergence, 125 g ai/ha, visual rating, scale 0 (no effect) to 100 (complete control)
[22] = preemergence, 125 g ai/ha, 0 to 100 scale, 0 is no effect, 100 is complete control
[23] = Postemergence, 500 g ai/ha, visual rating after 13 to 15 days
[24] = postemergence, 125 g ai/ha, visual rating

CCOC(=O)c1cc(NC(=O)c2cc(C(C)(C)C)nn2CC)ccc1F [Compound 89]
50: Plant response rating, Morningglory (morningglory [10]; [19]) | Plant response rating, Velvetleaf (velvetleaf [14]; [19])
30: Lambsquarters plant response rating (lambsquarters; [21]) | Plant response rating, Oat, Wild (wild oat; [23]) | Plant response rating, Pigweed (redroot pigweed; [16]) | Velvetleaf plant response rating (velvetleaf [14]; [21])
90: Plant response rating, Cocklebur (cocklebur; [19])
70: Cocklebur plant response rating (cocklebur; [21])
25: Plant response rating, Crabgrass, Large (large crabgrass [5]; [16])
60: Sedge, Umbrella plant response rating [11] | Plant response rating, Lambsquarters (lambsquarters; [19])
80: Crabgrass, Large plant response rating (large crabgrass [7]; [20])
10: Velvetleaf plant response rating (velvetleaf [1]; Preemergence, 2000 g ai/ha, visual rating, 0 to 100 scale (0 no effect, 100 complete control)) | Rice plant response rating (rice [2]) | Morningglory plant response rating (morningglory [3]; [18]) | Barnyardgrass plant response rating (barnyardgrass [4]; [21]) | Barnyardgrass plant response rating (barnyardgrass [6]) | Crabgrass, Large plant response rating (large crabgrass [7]; [21]) | Surinam Grass plant response rating (Surinam grass; [21]) | Plant response rating, Blackgrass (blackgrass; [23]) | Corn plant response rating (corn; [21]) | Pigweed plant response rating (redroot pigweed; [18])
20: Velvetleaf plant response rating (velvetleaf [1]; [15]) | Plant response rating, Velvetleaf (velvetleaf [1]; [16]) | Morningglory plant response rating (morningglory [3]; [15]) | Plant response rating, Barnyardgrass (barnyardgrass [4]; [19]) | Crabgrass, Large plant response rating (large crabgrass [5]; [15]) | Plant response rating, Crabgrass, Large (large crabgrass [7]; [19]) | Plant response rating, Foxtail, Giant (giant foxtail [8]; [19]) | Foxtail, Giant plant response rating (giant foxtail [8]; [21]) | Plant response rating, Wheat (wheat; [23]) | Wheat plant response rating (wheat; [24]) | Morningglory plant response rating (morningglory [10]; [21]) | Pigweed plant response rating (pigweed; [21]) | Plant response rating, Surinam Grass (Surinam grass; [19]) | Foxtail, Giant plant response rating (giant foxtail [12]; [15]) | Plant response rating, Foxtail, Giant (giant foxtail [12]; [16]) | Oat, Wild plant response rating (wild oat; [24]) | Barnyardgrass plant response rating (barnyardgrass [13]; [15]) | Plant response rating, Barnyardgrass (barnyardgrass [13]; [16]) | Plant response rating, Corn (corn; [19]) | Pigweed plant response rating (redroot pigweed; [15])
40: Plant response rating, Pigweed (pigweed; [19])
0: Velvetleaf plant response rating (velvetleaf [1]; [17]) | Ducksalad plant response rating (ducksalad) | Morningglory plant response rating (morningglory [3]; [17]) | Barnyardgrass plant response rating (barnyardgrass [4]; [20]) | Plant response rating, Barnyardgrass (barnyardgrass [4]; [22]) | Crabgrass, Large plant response rating (large crabgrass [5]; [17]) | Crabgrass, Large plant response rating (large crabgrass [5]; [18]) | Plant response rating, Crabgrass, Large (large crabgrass [7]; [22]) | Foxtail, Giant plant response rating (giant foxtail [8]; [20]) | Plant response rating, Foxtail, Giant (giant foxtail [8]; [22]) | Plant response rating, Rice (rice [9]) | Plant response rating, Morningglory (morningglory [10]; [22]) | Plant response rating, Pigweed (pigweed; [22]) | Cocklebur plant response rating (cocklebur; [20]) | Plant response rating, Cocklebur (cocklebur; [22]) | Plant response rating, Surinam Grass (Surinam grass; [22]) | Foxtail, Giant plant response rating (giant foxtail [12]; [17]) | Foxtail, Giant plant response rating (giant foxtail [12]; [18]) | Plant response rating, Lambsquarters (lambsquarters; [22]) | Blackgrass plant response rating (blackgrass; [24]) | Barnyardgrass plant response rating (barnyardgrass [13]; [17]) | Barnyardgrass plant response rating (barnyardgrass [13]; [18]) | Corn plant response rating (corn; [20]) | Plant response rating, Corn (corn; [22]) | Pigweed plant response rating (redroot pigweed; [17]) | Plant response rating, Velvetleaf (velvetleaf [14]; [22])
15: Plant response rating, Morningglory (morningglory [3]; [16])
